Publication PMC9582125, “Two triphosphate tunnel metalloenzymes from apple exhibit adenylyl cyclase activity” (Frontiers in Plant Science, 2022)

Target: T1, HpAC1 (Hippeastrum hybrid cultivar, UniProt E1AQY1)
T1 construct: gene AC1
T1 sequence (E1AQY1 1-206): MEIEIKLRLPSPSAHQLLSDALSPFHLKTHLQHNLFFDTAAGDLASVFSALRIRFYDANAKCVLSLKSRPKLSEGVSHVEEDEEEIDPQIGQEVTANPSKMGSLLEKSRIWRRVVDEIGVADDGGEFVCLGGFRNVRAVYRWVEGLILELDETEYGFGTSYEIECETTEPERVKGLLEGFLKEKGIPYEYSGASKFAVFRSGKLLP
Test: malachite green phosphate release
Assay type: biochemical
Settings: divalent cation, pH 7.5, 30 °C; hydrolysis

Structure (SMILES): O=P(O)(O)OP(=O)(O)OP(=O)(O)O [PPPi]
- malachite green phosphate release: HpAC1 could hydrolyze both organic and inorganic triphosphates like MdTTM2
